Laboratory results taken from publication PMC6179046, “Discovery of novel 1,3-diaryltriazene sulfonamides as carbonic anhydrase I, II, VII, and IX inhibitors” (Journal of Enzyme Inhibition and Medicinal Chemistry, 2018).

Experiments:
Experiment in all cases: stopped-flow CO2 hydrase assay
Assay type in all cases: biochemical
hCA VII = target: T1, hCA VII (Homo sapiens, UniProt P43166)
T1 construct: gene CA7; recombinant, obtained as reported earlier; cytosolic isoform
Text: stopped-flow CO2 hydrase assay on hCA VII

hCA II = target: T2, hCA II (Homo sapiens, UniProt P00918)
T2 construct: gene CA2; recombinant, obtained as reported earlier; cytosolic isoform
Text: stopped-flow CO2 hydrase assay on hCA II

hCA I = target: T3, hCA I (Homo sapiens, UniProt P00915)
T3 construct: gene CA1; recombinant, obtained as reported earlier; cytosolic isoform
T3 sequence (P00915 2-261): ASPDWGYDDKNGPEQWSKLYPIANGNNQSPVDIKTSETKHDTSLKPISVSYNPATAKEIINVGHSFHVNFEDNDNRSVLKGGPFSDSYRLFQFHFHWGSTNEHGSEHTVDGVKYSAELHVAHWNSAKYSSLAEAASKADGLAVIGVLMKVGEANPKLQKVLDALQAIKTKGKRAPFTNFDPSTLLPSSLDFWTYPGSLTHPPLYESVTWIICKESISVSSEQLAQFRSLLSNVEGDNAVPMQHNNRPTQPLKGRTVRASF
Text: stopped-flow CO2 hydrase assay on hCA I

hCA IX = target: T4, hCA IX (Homo sapiens, UniProt Q16790)
T4 construct: gene CA9; recombinant, obtained as reported earlier
Text: stopped-flow CO2 hydrase assay on hCA IX

T1 sequence (P43166 whole entry, canonical isoform): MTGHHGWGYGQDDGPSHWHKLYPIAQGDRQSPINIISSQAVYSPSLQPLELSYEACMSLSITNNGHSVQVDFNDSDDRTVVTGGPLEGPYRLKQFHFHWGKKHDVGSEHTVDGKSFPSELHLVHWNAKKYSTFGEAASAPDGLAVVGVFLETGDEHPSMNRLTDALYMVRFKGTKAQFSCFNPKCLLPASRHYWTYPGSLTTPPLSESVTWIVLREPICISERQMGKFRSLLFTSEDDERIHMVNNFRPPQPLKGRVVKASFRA

Structure (SMILES) | Ki (hCA VII) | Ki (hCA II) | Ki (hCA I) | Ki (hCA IX)
NS(=O)(=O)c1cccc(N/N=N/c2ccc(C(=O)O)cc2)c1 [4b, 4–(3-(3-sulfamoylphenyl)triaz-2-en-1-yl) benzoic acide] | 967 ± 54 nM | 68.7 ± 5.1 nM | 92.3 ± 7.1 nM | 835 ± 47 nM
CCCCOc1ccc(NN=Nc2cccc(S(N)(=O)=O)c2)cc1 [4d, 3–(3-(4-butoxyphenyl)triaz-1-en-1-yl) benzenesulfonamide] | 5870 ± 314 nM | 519 ± 39 nM | 618 ± 40 nM | 7430 ± 216 nM
NS(=O)(=O)c1cccc(/N=N/Nc2ccc(F)cc2)c1 [4a, 3–(3-(4-fluorophenyl)triaz-1-en-1-yl) benzenesulfonamide] | 9480 ± 348 nM | 858 ± 43 nM | 365 ± 15 nM | 8050 ± 126 nM
N#Cc1ccc(NN=Nc2cccc(S(N)(=O)=O)c2)cc1 [4c, 3–(3-(4-cyanophenyl)triaz-1-en-1-yl) benzenesulfonamide] | 7900 ± 456 nM | 605 ± 34 nM | 501 ± 31 nM | 8960 ± 348 nM

Second part, the compound after the results:

Ki (hCA VII) | Ki (hCA II) | Ki (hCA I) | Ki (hCA IX) | Structure (SMILES)
15.6 ± 0.9 nM | 4.3 ± 0.2 nM | 277 ± 18 nM | 50.8 ± 3.6 nM | Cc1cc(C)cc(NN=Nc2cccc(S(N)(=O)=O)c2)c1 [4f, 3–(3-(3,5-dimethylphenyl)triaz-1-en-1-yl)benzenesulfonamide]
7830 ± 418 nM | 9190 ± 504 nM | 8370 ± 601 nM | 9270 ± 451 nM | NS(=O)(=O)c1cccc(N=NNc2ccc(Cl)c(Cl)c2)c1 [4h, 3–(3-(3,4-dichlorophenyl)triaz-1-en-1-yl)benzenesulfonamide]
2560 ± 129 nM | 6460 ± 310 nM | 3850 ± 179 nM | 84.9 ± 4.5 nM | COc1ccc(/N=N/Nc2cccc(S(N)(=O)=O)c2)cc1OC [4g, 3–(3-(3,4-dimethoxyphenyl)triaz-1-en-1-yl)benzenesulfonamide]
5760 ± 324 nM | 877 ± 62 nM | 416 ± 32 nM | 7230 ± 159 nM | COc1ccc(/N=N/Nc2cccc(S(N)(=O)=O)c2)cc1 [4e, 3–(3-(4-methoxyphenyl)triaz-1-en-1-yl) benzenesulfonamide]
